Columns and labels:
[1] = test system: C57BL/6 mice; assay: Serum osteocalcin (biochemical marker of bone formation) measured by EIA Elisa in mice treated daily i.p. for 30 days; assay type: in vivo; settings: four month old male C57BL/6 mice, fraction
Procedure: (§1) Four month old male C57BL/6 mice were treated daily with saline vehicle or the sclerostin inhibitor of Formula Ib:
(§2) [drawing 9] at low, mid, or high doses (via i.p) for 30 days. Study endpoints included a biochemical marker of bone formation, osteocalcin measured by EIA Elisa, and measurement of trabecular bone volume by mico-CT analysis on the proximal tibia.

[2] = test system: C57BL/6 mice; assay: Trabecular bone volume by micro-CT analysis on the proximal tibia in mice treated daily i.p. for 30 days; assay type: in vivo; settings: four month old male C57BL/6 mice
Procedure: as §1, §2

O=C1CCCN1c1ccccc1O [Formula Ib]
increase in serum osteocalcin over baseline ([1]; 0.5 mg/kg (C), also printed as 4%): 0.04 | increase in serum osteocalcin over baseline ([1]; 2 mg/kg (B), also printed as 24%): 0.24 | increase in serum osteocalcin over baseline ([1]; 10 mg/kg (A), also printed as 27%): 0.27 | percent change in tibia long bone volume increase versus saline controls ([2]; 0.5 mg/kg (C)): 13% | percent change in tibia long bone volume increase versus saline controls ([2]; 2 mg/kg (B)): 40% | percent change in tibia long bone volume increase versus saline controls ([2]; 10 mg/kg (A)): 69%
